The source made the active and inactive calls. The calls are words filed in the database; no cut-off is given here.

For data set [1], the species on record is Mus musculus. Briefly: Activation of AMPK in mouse 3T3L1 adipocytes assessed as increase in 2-NBDG uptake at 10 uM after 90 mins by fluorescence assay. In kind it is cell-based.
For data set [2], the system named is C2C12. Briefly: Activation of AMPK in mouse C2C12 cells assessed as increase in ACC phosphorylation at Ser79 residues at 1 mM after 1 hr by Western blot analysis. In kind it is cell-based. (In western blotting, separated proteins are transferred to a membrane and probed.)
For data set [3], the species on record is Mus musculus. The data set can be described thus: Cytotoxicity against mouse C2C12 cells assessed as decrease in cell viability at 10 uM after 2 to 24 hrs by MTT assay. The note with it: c2c12, 10 µM. In kind it is toxicity, cell-based.
Data set [4] is described as follows: Effect on total AMPK expression in mouse C2C12 cells at 10 uM after 2 hrs by Western blot analysis. In kind it is ADME, cell-based. The note with it: c2c12, 2 h.
The species named for data set [5] is Mus musculus. The data set can be described thus: Activation of AMPK in mouse 3T3L1 adipocytes assessed as increase in 2-NBDG uptake at 10 uM after 90 mins by fluorescence microscopy. In kind it is cell-based.
For data set [6], the system named is C2C12. The data set can be described thus: Activation of AMPK in mouse C2C12 cells assessed as increase in ACC phosphorylation at Ser79 residues at 10 uM after 2 hrs by Western blot analysis. In kind it is cell-based.
The species named for data set [7] is Mus musculus. The data set can be described thus: Cytotoxicity against mouse 3T3L1 adipocytes assessed as decrease in cell viability at 10 uM after 2 to 24 hrs by MTT assay. In kind it is toxicity. The note with it: 3t3-l1, 10 µM. On the technique in general: Tetrazolium dyes change colour on reduction, which living cells bring about.
The test system of data set [8] is C2C12. The data set can be described thus: Induction of AMPK alpha phosphorylation at Thr172 residue in mouse C2C12 cells at 10 uM after 2 hrs by Western blot analysis. In kind it is cell-based.

With `COCc1c(O)cc2c(c1OC)C(=O)c1ccccc1C2=O`, the outcome in the data set listed under Mus musculus [1] was Active.

With `COc1c(O)c(O)cc2c1C(=O)c1ccccc1C2=O`, the outcome in the data set filed under Mus musculus [1] was Active.

As for `NC(=O)c1ncn([C@@H]2O[C@H](CO)[C@@H](O)[C@H]2O)c1N`, in the data set with C2C12 [2], the outcome was Active.

Turning to `COc1c2c(cc3c1C(=O)c1ccccc1C3=O)OC(C)(C)OC2`, the Activity result (in the data set listed under Mus musculus [3]; in data set [4]; in the data set listed under Mus musculus [7]) was “Non-Toxic” each time. The result in the data set filed under Mus musculus [5], in the data set filed under Mus musculus [1], in the data set on C2C12 [6] and in the data set with C2C12 [8] was Active.

For `Cc1cc2c(cc1O)C(=O)c1ccccc1C2=O`, in the data set listed under Mus musculus [1], the outcome was Active.

As to `CCCCOCc1c(O)cc2c(c1O)C(=O)c1ccccc1C2=O`, the result in the data set filed under Mus musculus [1] was Active.

Consider `COCc1c(OC)cc2c(c1OC)C(=O)c1ccccc1C2=O`, for which the result in the data set filed under Mus musculus [1] was Active.

With `Cc1ccc2c(c1)C(=O)c1ccccc1C2=O` [TECTOQUINONE], the Activity entry in data set [4] is reported as “Non-Toxic”. For the same compound, the outcome in the data set filed under Mus musculus [5], in the data set filed under Mus musculus [1] and with C2C12 [8] was Active.

`COc1c(C)c(O)cc2c1C(=O)c1ccccc1C2=O`: in the data set listed under Mus musculus [1], the result was Active.

With `COc1cc2c(cc1C)C(=O)c1ccccc1C2=O`, the result in the data set listed under Mus musculus [1] was Active.

As to `COc1cc2c(c(O)c1COCCC(C)C)C(=O)c1ccccc1C2=O`, the Activity result (in the data set listed under Mus musculus [3]; in data set [4]; in the data set filed under Mus musculus [7]) was “Non-Toxic” each time. Moreover, the outcome in the data set listed under Mus musculus [5], in the data set filed under Mus musculus [1], in the data set with C2C12 [6] and with C2C12 [8] was Active.

(Values after ChEMBL document CHEMBL3871291, “Anthraquinones from Morinda longissima and their insulin mimetic activities via AMP-activated protein kinase (AMPK) activation” (Bioorg Med Chem Lett, 2017).)
